Reference: article PMC10002517, “Inhibition of Transglutaminase 2 as a Therapeutic Strategy in Celiac Disease—In Vitro Studies in Intestinal Cells and Duodenal Biopsies” (International Journal of Molecular Sciences, 2023)

Tests used:
[1] = target: T1, extracellular TG2 on Caco-2 cells (Homo sapiens, UniProt P21980); assay: Extracellular TG2 activity on confluent Caco-2 cell monolayers (5BP cross-linking); format: cell-based; settings: for TG2-mediated crosslinking: 1 mM DTT, 3 h with 5BP, mean ± SD, n = 4
T1 construct: endogenous in cells; host or cells: Caco-2 (differentiated; IFN-γ-stimulated in the monolayer assay)
T1 sequence (P21980 1-687): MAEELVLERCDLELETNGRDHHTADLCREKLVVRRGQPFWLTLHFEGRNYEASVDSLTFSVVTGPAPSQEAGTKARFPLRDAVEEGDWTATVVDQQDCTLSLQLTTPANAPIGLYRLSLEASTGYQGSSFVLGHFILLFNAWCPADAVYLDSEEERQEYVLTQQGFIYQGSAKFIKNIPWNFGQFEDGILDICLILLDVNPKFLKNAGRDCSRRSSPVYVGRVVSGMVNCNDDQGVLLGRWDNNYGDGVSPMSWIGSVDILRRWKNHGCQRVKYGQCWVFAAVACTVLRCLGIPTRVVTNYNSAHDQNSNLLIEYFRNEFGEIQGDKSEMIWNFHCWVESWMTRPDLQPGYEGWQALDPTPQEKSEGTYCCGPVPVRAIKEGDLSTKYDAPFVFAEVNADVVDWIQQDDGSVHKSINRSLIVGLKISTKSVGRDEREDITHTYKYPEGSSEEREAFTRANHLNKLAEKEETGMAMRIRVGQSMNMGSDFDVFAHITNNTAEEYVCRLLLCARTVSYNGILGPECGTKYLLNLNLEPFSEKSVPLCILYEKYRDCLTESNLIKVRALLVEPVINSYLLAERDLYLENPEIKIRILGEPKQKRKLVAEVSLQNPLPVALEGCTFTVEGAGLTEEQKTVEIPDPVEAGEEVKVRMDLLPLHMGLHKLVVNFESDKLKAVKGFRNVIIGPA
Procedure: The method was adapted from Yi et al.. To induce TG2 expression, Caco-2 cells were stimulated with IFN-γ 1000 IU/mL for 48 h. Then, cells were washed three times with warm PBS and incubated with the substrate 5BP for 3 h at 37 °C in 50 mM Tris and 1 mM EDTA (pH 7.5). The substances ERW1041, PX-12 and DTT were added to this solution when indicated. After incubation, cells were washed three times with PBS, fixed with 4% paraformaldehyde for 10 min and blocked with 5% BSA in PBS at 4 °C overnight. Then, cells were incubated at room temperature with streptavidin-Alexa488 (Thermo Scientific, 4 µg/mL) in 5% BSA in the dark for 1 h, followed by three washes with PBS. Fluorometric quantitation was conducted using a FLUOstar Optima microplate reader (BMG Labtech, filter settings: excitation 485 nm, emission 525 nm). Manual gain adjustment was performed, setting the well with the most intense signal as 95%. In all experiments, data were background subtracted against a control without 5BP substrate.

[2] = target: T2, TG2 in the intestinal lamina propria (Homo sapiens, UniProt P21980); assay: TG2 activity in cryosections of duodenal biopsies from CD patients (5BP, confocal microscopy); format: biochemical; settings: increasing amounts of DTT in the incubation buffer
T2 construct: from tissue; host or cells: duodenal biopsies from celiac disease patients (unfixed 400 nm cryosections, lamina propria)
T2 sequence (P21980 1-687): T1 sequence (P21980 1-687)
Procedure: For immunofluorescence microscopic investigation of transglutaminase activity, only biopsies with minor macroscopic inflammatory signs were used. After endoscopy, biopsies were immediately washed three times in PBS and cryopreserved in polyvinylpyrrolidone sucrose at 4 °C overnight. Biopsies were mounted on specimen holders using Tissue-Tek O.C.T (Sakura Finetek, Staufen im Breisgau, Germany) compound and frozen in liquid nitrogen. For evaluation of transglutaminase activity by the post-embedding procedure, 400 nm cryosections were obtained using a cryo-ultramicrotome (Leica EM UC6, Leica, Wetzlar, Germany) and mounted on class cover slides. After three brief washes with PBS, tissue sections were incubated with the indicated concentrations of the inhibitors for 1 h in tris buffer. Then, the TG2 substrate 5BP was incubated for 1 h at 37 °C in tris buffer containing DTT at the indicated concentration. Slides were washed three times in PBS, fixed in 4% paraformaldehyde (10 min), permeabilized with 0.5% Triton (10 min) and incubated with blocking solution (0.1% cold water fish skin gelatin + 5% BSA + 5% goat serum, 10 min). Afterwards, a rabbit polyclonal antibody directed against human TG2 (Kan5, kindly provided by Dr T. Mothes, Institute of Laboratory Medicine, University Hospital Leipzig, Germany) was applied at 1:200 dilution in blocking solution overnight at 4 °C. After three washing steps (each 5 min) with PBS, Alexa Fluor-555-conjugated secondary antibody (goat-anti-rabbit, 1:200, Thermo Fisher Scientific) and Alexa Fluor-488-conjugated streptavidin (2 µg/mL, Thermo Fisher Scientific) were incubated at room temperature in the dark for 1 h. After three washes with PBS, samples were covered in ProLong Gold antifade mountant (Thermo Fisher Scientific) and sealed with clear nail polish. Sealed slides were stored in the dark at 4 °C until microscopy.
Imaging was done using a confocal laser scanning microscope (TE2000-E, Nikon, Langen, Germany) and a 60× Plan Apo (NA 1.41) immersion oil objective. The detailed acquisition settings and the corresponding macro (Image J [46]) for image processing can be accessed in the Supplementary Materials methods (S1). Five images per patient where quantified. For quantitation, mean fluorescence intensity of TG2 activity (488 nm channel) was normalized to TG2 expression (555 nm channel) within the intestinal lamina propria.

[3] = target: T3, TG2 in Caco-2 cell lysates (Homo sapiens, UniProt P21980); assay: Transglutaminase activity in Caco-2 whole cell lysates (5BP cross-linking); format: biochemical; settings: mean ± SD, n = 3
T3 construct: endogenous in cells; host or cells: Caco-2 (differentiated; IFN-γ-stimulated in the monolayer assay)
T3 sequence (P21980 1-687): T1 sequence (P21980 1-687)
Procedure: The method to investigate TG2 activity from whole cell lysates was adapted from Lin et al.. In brief, 20 µg protein per cavity on the 96-well plate were incubated in 50 mM Tris, 1 mM EDTA, 5 mM calcium chloride (pH 7.5) buffer in the presence of 500 µM 5BP (5-biotinamidopentylamine, Thermo Fisher Scientific, Langenselbold, Germany) for the indicated time. After incubation, the plate was washed three times with PBS + 0.05% Tween. After blocking with 5% BSA in PBS for 1 h, the plate was incubated with 2 µg/mL streptavidin-Alexa Fluor 488 (Thermo Fisher Scientific) in 5% BSA. After 3 washing steps with PBS + 0.05% Tween, fluorometric evaluation was performed using a Clariostar Plus (BMG Labtech) microplate reader (no well scan mode, excitation 488 nm, emission 535 nm, fixed gain: 2000).

[4] = system: transepithelial passage of P31-43 in Caco-2 cells; assay: Transepithelial transport of promofluor-conjugated gliadin peptide P31-43 across Caco-2 monolayers (fluorometry); format: cell-based, human; settings: 3 h
Procedure: (§1) Transepithelial transport of immunogenic and toxic gliadin peptides were examined in Caco-2 cells 7–14 days after confluency. Caco-2 cells were seeded on semi-permeable transwell supports (ThinCert, culture surface: 33.6 mm², pore size: 0.4 µm) in 24-well plates (Greiner Bio One, Pleidelsheim, Germany). Prior to the transport experiments, the integrity of the cell monolayer was tested by measuring the transepithelial electric resistance (TEER) using a volt-ohm meter (Millipore, Schwalbach, Germany). Monolayers with insufficient TEER (<350 Ω/cm^2) were omitted. The synthesis and purification of promofluor-conjugated gliadin peptides were described elsewhere. Cells were either incubated with the immunogenic peptide P56-88 ([…]) or the toxic gliadin peptide P31-43 (LGQQQPFPPQQPY), 7 µg/mL each, in Hank’s balanced salt solution (HBSS) for 3 h. To investigate the role of TG2 on the transport of gliadin peptides, incubation was performed in the presence of ERW1041 and PX-12. After 3 h, basal and apical supernatants were collected, and the relative fluorescence of the basal compartment was quantified using a FLUOstar Optima (BMG Labtech) microplate reader. Background subtraction was performed against conditions, where no labeled peptides were used. Normalization was performed against conditions, where no inhibitors were used.

[5] = system: transepithelial passage of P56-88 in Caco-2 cells; assay: Transepithelial transport of promofluor-conjugated gliadin peptide P56-88 across Caco-2 monolayers (fluorometry); format: cell-based, human; settings: 3 h
Procedure: as §1

[6] = system: TG2 expression; assay: Western blotting of TG2 protein expression in Caco-2 cells; format: cell-based, human; settings: IFN-γ 48 h; normalized to GAPDH; n = 4
Procedure: […] First, cells were washed two times with cold PBS, scraped off the plate and centrifuged (60 s at 14,100× g). The cell pellet was resuspended in RIPA lysis buffer supplemented with phenylmethylsulfonyl fluoride, protease inhibitor and sodium orthovanadate (1% each), incubated for 20 min on ice and centrifuged (20 min at 14,100 gat 4 °C) afterwards. Supernatant was collected and cell debris was discarded. Protein quantitation was performed using the Pierce BCA protein assay kit (Thermo Fisher Scientific). After denaturation in Laemmli buffer containing 2-mercaptoethanol for 5 min at 95 °C, 10 µg of the protein extract per lane were loaded on a 12% SDS-gel. Electrophoresis was done for 1 h at 40 mA. Protein transfer onto PVDF membrane (0.2 µm pore size) was done using a Transblot Turbo system (Bio-Rad Laboratories) for 30 min (25 V, 1 A). The membrane was blocked for 1 h with 5% non-fat dry milk in PBS + […]. The primary antibodies (anti-TG2 (1:500): CUB7402, Abcam, Cambridge, UK; anti-GAPDH (1:5000): MAB374, Merck Millipore, Darmstadt, Germany) were incubated at 4 °C in blocking buffer overnight. […] Image processing and quantitation were performed using a ChemiDoc XRS+ imager and Image Lab software (BioRad Laboratories, Feldkirchen, Germany).

[7] = system: uptake of P56-88 by Caco-2 cells; assay: Epithelial uptake of P56-88 by Caco-2 cells (confocal microscopy); format: cell-based, human; settings: 1 h incubation; z-stack imaging and 3D reconstruction
Procedure: For microscopic evaluation, Caco-2 cells were seeded on polymer-covered µ-slides (80826, Ibidi) and incubated for 1 h with labeled gliadin peptides in the presence of TG2 inhibitors. After three washes with PBS, cells were fixed with 4% paraformaldehyde. Nuclear staining was performed for 10 min using Hoechst fluorescent stain (1:1000 in PBS). Imaging was done using a confocal laser scanning microscope (TE2000-E, Nikon) and a 60× Plan Apo (NA 1.41) immersion oil objective. Processing of z-stacks, including 3D reconstruction, was performed using ImageJ [46]. For quantitation, z-stack images were taken with the same microscope settings. Using ImageJ, maximum intensity projections were obtained of the z-stack images, and the fluorescence intensity was measured within the whole image.

[8] = system: epithelial infiltration of CD8+ T cells and mucosal damage; settings: cited from earlier work
Description: (§2) Even though our results underline the significance of TG2 inhibition, further research is needed to investigate the effects of those inhibitors on gliadin-induced inflammation. In recent studies, these inflammatory mechanisms were only partially mitigated by inhibition of TG2.

[9] = system: actin rearrangement; settings: cited from earlier work
Description: as §2

[10] = system: gliadin peptide uptake (P31-43 and P57-68); settings: cited from earlier work
Description: Since TG2 is expressed on the surface of epithelial cells and plays a role in transcytosis, we aimed to investigate the effect of TG2 inhibitors on the epithelial uptake of gliadin peptides. First, we confirmed the results from Caputo et al. and Zimmermann et al. by showing that the translocation of P31-43, but not of P56-88, was inhibited by the endocytosis inhibitor MBCD [21, 37].

[11] = system: T-cell stimulation; settings: cited from earlier work
Description: as §2

[12] = Caco-2 monolayer on transwell, A-B, 7 µg/mL in HBSS, TEER >= 350 Ω/cm^2, fluorometry

Molecule: O[C@@H](CS)[C@@H](O)CS (racemic) [DTT, dithiothreitol]
- TG2-mediated crosslinking ([1]; IFN-γ-stimulated Caco-2 cells, not significant): 123 ± 24%
- TG2-mediated crosslinking ([1]; non-stimulated Caco-2 cells): 141 ± 17%
- effect of DTT on TG2 activity in cryopreserved tissue sections [2]: enhanced TG2 activity in the cryopreserved tissue in a dose-dependent manner
- TG2 activity in Caco-2 cell lysates ([3]; protein lysate treated with 10 mM DTT for 1 h): 395 ± 21%

Molecule: methyl-β-cyclodextrin [MBCD]
- transepithelial passage of P31-43 (relative basal fluorescence) ([4]; in the presence of MBCD, 7 µg/mL peptide apical in HBSS, normalized to no inhibitor, mean ± SD, n = 3): 58 ± 7%
- transepithelial transport of P56-88 (relative basal fluorescence) ([5]; in the presence of MBCD, 7 µg/mL peptide apical in HBSS, normalized to no inhibitor, n.s., mean ± SD, n = 3): 89 ± 13%

Molecule: IFN-γ: key cytokine of the Th1-driven inflammation in CD, recognized inducer of TG2 expression
- TG2 expression on the protein level [6]: almost sevenfold increase

Molecule: LQLQPFPQPQLPYPQPQLPYPQPQLPYPQPQPF [P56-88]
- cellular localization of the peptide [7]: localized in the supranuclear cell region
- translocation from the apical to the basal compartment [5, 12]: detected in the basal compartment

Molecule: LGQQQPFPPQQPY [P31-43]
- translocation from the apical to the basal compartment [4, 12]: detected in the basal compartment

Molecule: CC(=O)CSc1n(C)cc[n+]1C.[Cl-] [R283]
- effect on epithelial infiltration of CD8+ T cells and mucosal damage [8]: did not mitigate
- effect on actin rearrangement after treatment with P31-43 [9]: did not prevent actin rearrangement

Molecule: NCCSSCCN [cystamine]
- effect on gliadin peptide uptake (P31-43 and P57-68) [10]: did not show an effect
- CD patients in whom T-cell stimulation was prevented [11]: 50%

Molecule: CN(C)c1cccc2c(S(=O)(=O)NCCCCCN)cccc12 [monodansyl cadaverine]
- effect on gliadin peptide uptake (P31-43 and P57-68) [10]: did not show an effect

B1: IFN-γ: key cytokine of the Th1-driven inflammation in CD, recognized inducer of TG2 expression (protein, UniProt P01579 24-161, looked up)
Interferon gamma: QDPYVKEAENLKKYFNAGHSDVADNGTLFLGILKNWKEESDRKIMQSQIVSFYFKLFKNFKDDQSIQKSVETIKEDMNVKFFNSNKKKRDDFEKLTNYSVTDLNVQRKAIHELIQVMAELSPAAKTGKRKRSQMLFRG
- increase of extracellular TG2 activity after IFN-γ stimulation ([1]; 1000 IU/mL IFN-γ, 48 h): about 4 times
- TG2 activity in Caco-2 cell lysates ([3]; Caco-2 cells treated with 500 IU/mL IFN-γ for 48 h): 760 ± 259%
